From US5300629A, “Bactericidal and/or bacteriostatic peptides isolated from hemolymph of honeybees” (Plant Genetic Systems, N.V., priority 1987, dated 1994)
Values after ≈ are worked out from the molar mass of the structure shown. Where a SMILES comes first, the peptide text is derived from it.

System: Corynebacterium insidiosum NCPPB 1109
Experiment: Minimal inhibitory concentration in liquid culture
Type: cell-based
Conditions: 200 μl rich medium, 10^4 log-phase bacteria
Protocol: In addition the exact concentration was determined precisely by amino-acid analysis and an equal sample of natural Bee 6b was prepared, allowing to compare the bactericidal activity of both natural and synthetic apidaecins by means of growth inhibition assays in liquid cultures (see mat & Meth.). The minimal inhibitory concentrations (μg/ml) were determined in liquid culture : 200 μl of a rich medium (trypticase soy broth or nutrient broth) was inoculated with 10^4 log-phase bacteria. Peptide concentrations ranged between 0 and 200 μg/ml. The values express μg/ml; when no inhibition was noticed the maximal values are given (+200 μg/ml or +50 μg/ml). All peptides were chemically synthesized, except for bee 6b which is purified from bee lymph.

CC[C@H](C)[C@H](NC(=O)[C@H](Cc1ccc(O)cc1)NC(=O)[C@@H](NC(=O)[C@@H]1CCCN1C(=O)[C@H](CCCNC(=N)N)NC(=O)[C@H](CC(N)=O)NC(=O)[C@H](CC(N)=O)NC(=O)CN)C(C)C)C(=O)N[C@@H](CCC(N)=O)C(=O)N1CCC[C@H]1C(=O)N[C@@H](CCCNC(=N)N)C(=O)N1CCC[C@H]1C(=O)N1CCC[C@H]1C(=O)N[C@@H](Cc1c[nH]cn1)C(=O)N1CCC[C@H]1C(=O)N[C@@H](CCCNC(=N)N)C(=O)N[C@@H](CC(C)C)C(=O)O [Apid PT-1] (H-GNNRPVYIQPRPPHPRL-OH)
minimal inhibitory concentration: 50 µg/mL (≈ 24.9 µM)
